Measurements taken from DBAASP.
Converted amounts (≈) assume the structure as drawn. “And” between values parts separate entries of the source, which are not always exact repeats. Equal entries are not always repeated.

What was measured:
Test in all cases: ≥ marks a high value that may be exact or a test limit, other limits are often not marked, values filed in µg/mL are converted to µM
[1] = system: Escherichia coli ATCC 10536
[2] = system: Staphylococcus aureus ATCC 9144
[3] = system: Bacillus subtilis ATCC 6633
[4] = system: Escherichia coli DH5alpha
[5] = system: Staphylococcus aureus ATCC 25923
[6] = system: Klebsiella pneumoniae M13540
[7] = system: Staphylococcus saprophyticus M2981
[8] = system: Klebsiella pneumoniae M9491
Escherichia coli M5306 = system: Escherichia coli M5306
[9] = system: Staphylococcus saprophyticus M4070
[10] = system: Klebsiella pneumoniae PFAV 3
[11] = system: Enterococcus faecium PZAP 95
[12] = system: Pseudomonas aeruginosa PACO12
[13] = system: Escherichia coli ATCC 25922
[14] = system: Enterococcus faecalis ATCC 51299
[15] = system: Enterococcus faecalis M6534
[16] = system: Enterococcus gallinarum M2723
Acinetobacter sp. M9013 = system: Acinetobacter sp. M9013
[17] = system: Enterococcus faecium M2664
[18] = system: Staphylococcus aureus P33
Acinetobacter sp. M9665 = system: Acinetobacter sp. M9665
Staphylococcus cohnii = system: Staphylococcus cohnii
[19] = system: Enterococcus faecalis ATCC 29212
Staphylococcus warneri = system: Staphylococcus warneri
Escherichia coli PCOS 15 = system: Escherichia coli PCOS 15
Acinetobacter sp. M13523 = system: Acinetobacter sp. M13523
[20] = system: Enterococcus gallinarum M2685
[21] = system: Staphylococcus aureus P204
[22] = system: Staphylococcus hominis M2973
Escherichia coli M9884 = system: Escherichia coli M9884
[23] = system: Enterococcus faecalis M4899
[24] = system: Staphylococcus hominis M2967
[25] = system: Klebsiella pneumoniae M9170
[26] = system: Staphylococcus epidermidis M2923
[27] = system: Klebsiella pneumoniae M5825
[28] = system: Staphylococcus aureus M6784
[29] = system: Staphylococcus epidermidis M2921
[30] = system: Pseudomonas aeruginosa ATCC 27853
Acinetobacter sp. M5949 = system: Acinetobacter sp. M5949
[31] = system: Staphylococcus haemolyticus M2976
[32] = system: Salmonella enterica subsp. enterica serovar Enteritidis ATCC 13076
[33] = system: Klebsiella pneumoniae ATCC 13883
[34] = system: Staphylococcus aureus ATCC BAA-39
[35] = system: Listeria monocytogenes ATCC 19115
[36] = system: Staphylococcus aureus ATCC 43300
[37] = system: Bacillus subtilis KCTC 3068
[38] = system: Escherichia coli KCTC 1682
[39] = system: Staphylococcus aureus CCARM 3089
[40] = system: Staphylococcus epidermidis KCTC 1917
[41] = system: Salmonella typhimurium CCARM 8003
[42] = system: Pseudomonas aeruginosa KCTC 1637
[43] = system: Staphylococcus aureus KCTC 1621
[44] = system: Salmonella typhimurium KCTC 1926
[45] = system: Escherichia coli CCARM 1229
[46] = system: Staphylococcus aureus CCARM 3114
[47] = system: Escherichia coli CCARM 1238

`CC[C@H](C)[C@H](NC(=O)[C@H](CCCN=C(N)N)NC(=O)[C@@H](NC(=O)[C@@H](NC(=O)[C@@H]1CCCN1C(=O)[C@@H](NC(=O)[C@@H](NC(=O)[C@H](C)NC(=O)[C@@H]1CCCN1C(=O)CNC(=O)[C@H](Cc1ccc(O)cc1)NC(=O)[C@H](CCCCN)NC(=O)[C@H](CCCCN)NC(=O)[C@H](Cc1c[nH]c2ccccc12)NC(=O)[C@H](C)NC(=O)[C@H](CCCN=C(N)N)NC(=O)[C@H](CC(C)C)NC(=O)[C@@H](NC(=O)[C@H](CCCCN)NC(=O)[C@H](CCCN=C(N)N)NC(=O)CNC(=O)[C@H](CC(C)C)NC(=O)[C@H](CO)NC(=O)[C@H](CCCN=C(N)N)NC(=O)[C@H](CC(C)C)NC(=O)CNC(=O)CN)[C@@H](C)CC)[C@@H](C)CC)C(C)C)[C@@H](C)CC)[C@@H](C)CC)C(N)=O` [GGLRSLGRKILRAWKKYGPAIVPIIRI] was tested, and the MIC [1] was 2.5 µM (≈ 7.58 µg/mL), the MIC [2] was 3.8 µM (≈ 11.5 µg/mL) and the MIC [3] was 1.7 µM (≈ 5.15 µg/mL). It also gave an MIC [4] of 2.7 µM (≈ 8.19 µg/mL).

With `CC[C@H](C)[C@H](NC(=O)[C@H](CCCN=C(N)N)NC(=O)[C@H](CCCCN)NC(=O)[C@H](Cc1ccccc1)NC(=O)[C@H](CCC(=O)O)NC(=O)[C@H](CCCCN)NC(=O)[C@H](Cc1c[nH]c2ccccc12)NC(=O)[C@H](CCCCN)NC(=O)[C@H](CCCCN)NC(=O)[C@H](CC(C)C)NC(=O)[C@H](Cc1c[nH]c2ccccc12)NC(=O)[C@H](CCCCN)NC(=O)[C@H](CCCCN)NC(=O)[C@H](CC(C)C)NC(=O)[C@H](CC(C)C)NC(=O)CN)C(=O)N[C@H](C(=O)NCC(=O)N[C@@H](Cc1ccc(O)cc1)C(N)=O)C(C)C` [GLLKKWLKKWKEFKRIVGY] the MIC [5] was 26.4 µM (≈ 64 µg/mL), the MIC [6] was 6.61 µM (≈ 16 µg/mL) and the MIC [7] was 3.3 µM (≈ 8 µg/mL). The MIC [8] was 26.4 µM (≈ 64 µg/mL), the MIC (Escherichia coli M5306) was 1.65 µM (≈ 4 µg/mL) and the MIC [9] was 13.2 µM (≈ 32 µg/mL). For the same compound, the MIC [10] was no less than 52.9 µM, the MIC [11] was 6.61 µM (≈ 16 µg/mL) and the MIC [12] was 26.4 µM (≈ 64 µg/mL). It also gave an MIC [13] of 13.2 µM (≈ 32 µg/mL), an MIC [14] of no less than 106 µM and an MIC [15] of no less than 106 µM. For the same compound, the MIC [16] was 13.2 µM (≈ 32 µg/mL), the MIC (Acinetobacter sp. M9013) was 3.3 µM (≈ 8 µg/mL) and the MIC [17] was 3.3 µM (≈ 8 µg/mL). For the same compound, the MIC [18] was no less than 52.9 µM, the MIC (Acinetobacter sp. M9665) was 13.2 µM (≈ 32 µg/mL) and the MIC (Staphylococcus cohnii) was 6.61 µM (≈ 16 µg/mL). For the same compound, the MIC [19] was 52.9 µM (≈ 128 µg/mL), the MIC (Staphylococcus warneri) was 3.3 µM (≈ 8 µg/mL) and the MIC (Escherichia coli PCOS 15) was 26.4 µM (≈ 64 µg/mL). It also gave an MIC (Acinetobacter sp. M13523) of 1.65 µM (≈ 4 µg/mL), an MIC [20] of 6.61 µM (≈ 16 µg/mL) and an MIC [21] of 26.4 µM (≈ 64 µg/mL). The MIC [22] was 1.65 µM (≈ 4 µg/mL), the MIC (Escherichia coli M9884) was 13.2 µM (≈ 32 µg/mL) and the MIC [23] was no less than 52.9 µM. The MIC [24] was 3.3 µM (≈ 8 µg/mL), the MIC [25] was 13.2 µM (≈ 32 µg/mL) and the MIC [26] was 6.61 µM (≈ 16 µg/mL). It also gave an MIC [27] of 3.3 µM (≈ 8 µg/mL), an MIC [28] of 13.2 µM (≈ 32 µg/mL) and an MIC [29] of 3.3 µM (≈ 8 µg/mL). The MIC [30] was 26.4 µM (≈ 64 µg/mL), the MIC (Acinetobacter sp. M5949) was 6.61 µM (≈ 16 µg/mL) and the MIC [31] was 3.3 µM (≈ 8 µg/mL).

In the case of `CC[C@H](C)[C@H](NC(=O)[C@H](CCCCN)NC(=O)[C@H](CCCN=C(N)N)NC(=O)[C@H](CC(C)C)NC(=O)[C@H](Cc1ccccc1)NC(=O)[C@H](CCCN=C(N)N)NC(=O)CNC(=O)[C@H](Cc1ccccc1)NC(=O)[C@H](CCCN=C(N)N)NC(=O)CNC(=O)[C@H](CCCN=C(N)N)NC(=O)[C@H](CCC(N)=O)NC(=O)[C@@H](NC(=O)[C@@H](N)CC(C)C)C(C)C)C(=O)O` [LVQRGRFGRFLRKI], the MIC [5] is reported as 11.3 µM and 32 µM, the MIC [13] is reported as 22.6 µM and 32 µM and the MIC [32] is reported as 16 µM (≈ 27.9 µg/mL). For the same compound, the MIC [33] was 16 µM and ≥ 32 µM, the MIC [34] was no less than 32 µM and the MIC [35] was 22.6 µM and ≥ 32 µM. The MIC [36] was 32 µM (≈ 55.9 µg/mL).

In the case of `CC[C@H](C)[C@H](NC(=O)[C@H](C)NC(=O)[C@H](CC(C)C)NC(=O)[C@H](Cc1c[nH]c2ccccc12)NC(=O)[C@H](CC(C)C)NC(=O)[C@@H](N)CCCN=C(N)N)C(=O)NCC(=O)N[C@@H](CCCN=C(N)N)C(=O)NCC(N)=O` [RLWLAIGRG], the MIC [37] is reported as 8 µM (≈ 8.32 µg/mL), the MIC [38] is reported as 8 µM (≈ 8.32 µg/mL) and the MIC [39] is reported as 16 µM (≈ 16.6 µg/mL). It also gave an MIC [40] of 4 µM (≈ 4.16 µg/mL), an MIC [41] of no less than 32 µM and an MIC [42] of no less than 32 µM. For the same compound, the MIC [43] was 16 µM (≈ 16.6 µg/mL), the MIC [44] was no less than 32 µM and the MIC [45] was 16 µM (≈ 16.6 µg/mL). It also gave an MIC [46] of no less than 32 µM and an MIC [47] of 8 µM (≈ 8.32 µg/mL).
